US9714244B2, “Substituted pyrido[4,3-d]pyrimidines as Wee-1 inhibitors” (ALMAC DISCOVERY LIMITED, priority 2013, dated 2017)

Key:
PHKG2 = PHKG2 (Homo sapiens (Human), UniProt P15735); test: SelectScreen Kinase Profiling: PHKG2; assay type: biochemical; settings: 300-350 nM
Text: (§1) Table 2 below highlights the selectivity of a representative compound of the invention against a panel of 50 kinases (assessed using the Invitrogen SelectScreen® Kinase Profiling Service).

INSR = INSR (Homo sapiens (Human), UniProt P06213); test: SelectScreen Kinase Profiling: INSR; assay type: biochemical; settings: 300-350 nM
Text: as §1

PIM1 = PIM1 (Homo sapiens (Human), UniProt P11309); test: SelectScreen Kinase Profiling: PIM1; assay type: biochemical; settings: 300-350 nM
Text: as §1

PRKCB1 (PKC beta I) = PRKCB1 (PKC beta I) (Homo sapiens (Human), UniProt P05771); test: SelectScreen Kinase Profiling: PRKCB1; assay type: biochemical; settings: 300-350 nM
Text: as §1

ABL1 = ABL1 (Homo sapiens (Human), UniProt P00519); test: SelectScreen Kinase Profiling: ABL1; assay type: biochemical; settings: 300-350 nM
Text: as §1

LCK = LCK (Homo sapiens (Human), UniProt P06239); test: SelectScreen Kinase Profiling: LCK; assay type: biochemical; settings: 300-350 nM
Text: as §1

KDR (VEGFR2) = KDR (VEGFR2) (Homo sapiens (Human), UniProt P35968); test: SelectScreen Kinase Profiling: KDR; assay type: biochemical; settings: 300-350 nM
Text: as §1

ERBB2 (HER2) = ERBB2 (HER2) (Homo sapiens (Human), UniProt P04626); test: SelectScreen Kinase Profiling: ERBB2; assay type: biochemical; settings: 300-350 nM
Text: as §1

MAPK14 (p38 alpha) = MAPK14 (p38 alpha) (Homo sapiens (Human), UniProt Q16539); test: SelectScreen Kinase Profiling: MAPK14; assay type: biochemical; settings: 300-350 nM
Text: as §1

MAPK8 (JNK1) = MAPK8 (JNK1) (Homo sapiens (Human), UniProt P45983); test: SelectScreen Kinase Profiling: MAPK8; assay type: biochemical; settings: 300-350 nM
Text: as §1

DYRK3 = DYRK3 (Homo sapiens (Human), UniProt O43781); test: SelectScreen Kinase Profiling: DYRK3; assay type: biochemical; settings: 300-350 nM
Text: as §1

Src [1] = settings: quoted in column head, BMCL 2005 p1931; cited from earlier work
MAPK1 (ERK2) = MAPK1 (ERK2) (Homo sapiens (Human), UniProt P28482); test: SelectScreen Kinase Profiling: MAPK1; assay type: biochemical; settings: 300-350 nM
Text: as §1

FGFR1 = FGFR1 (Homo sapiens (Human), UniProt P11362); test: SelectScreen Kinase Profiling: FGFR1; assay type: biochemical; settings: 300-350 nM
Text: as §1

ACVR1B (ALK4) = ACVR1B (ALK4) (Homo sapiens (Human), UniProt P36896); test: SelectScreen Kinase Profiling: ACVR1B; assay type: biochemical; settings: 300-350 nM
Text: as §1

AKT1 (PKB alpha) = AKT1 (PKB alpha) (Homo sapiens (Human), UniProt P31749); test: SelectScreen Kinase Profiling: AKT1; assay type: biochemical; settings: 300-350 nM
Text: as §1

MAP2K1 (MEK1) = MAP2K1 (MEK1) (Homo sapiens (Human), UniProt Q02750); test: SelectScreen Kinase Profiling: MAP2K1; assay type: biochemical; settings: 300-350 nM
Text: as §1

SYK = SYK (Homo sapiens (Human), UniProt P43405); test: SelectScreen Kinase Profiling: SYK; assay type: biochemical; settings: 300-350 nM
Text: as §1

NEK1 = NEK1 (Homo sapiens (Human), UniProt Q96PY6); test: SelectScreen Kinase Profiling: NEK1; assay type: biochemical; settings: 300-350 nM
Text: as §1

PLK1 = PLK1 (Homo sapiens (Human), UniProt P53350); test: SelectScreen Kinase Profiling: PLK1; assay type: biochemical; settings: 300-350 nM
Text: as §1

Src [2] = molecular target: Src (Homo sapiens (Human), UniProt P12931); test: SelectScreen Kinase Profiling: SRC; assay type: biochemical; settings: 300-350 nM
TEK (Tie2) = TEK (Tie2) (Homo sapiens (Human), UniProt Q02763); test: SelectScreen Kinase Profiling: TEK; assay type: biochemical; settings: 300-350 nM
Text: as §1

CHEK1 (CHK1) = CHEK1 (CHK1) (Homo sapiens (Human), UniProt O14757); test: SelectScreen Kinase Profiling: CHEK1; assay type: biochemical; settings: 300-350 nM
Text: as §1

IKBKB (IKK beta) = IKBKB (IKK beta) (Homo sapiens (Human), UniProt O14920); test: SelectScreen Kinase Profiling: IKBKB; assay type: biochemical; settings: 300-350 nM
Text: as §1

CSNK1G2 (CK1 gamma 2) = CSNK1G2 (CK1 gamma 2) (Homo sapiens (Human), UniProt P78368); test: SelectScreen Kinase Profiling: CSNK1G2; assay type: biochemical; settings: 300-350 nM
Text: as §1

MET (cMet) = MET (cMet) (Homo sapiens (Human), UniProt P08581); test: SelectScreen Kinase Profiling: MET; assay type: biochemical; settings: 300-350 nM
Text: as §1

NTRK1 (TRKA) = NTRK1 (TRKA) (Homo sapiens (Human), UniProt P04629); test: SelectScreen Kinase Profiling: NTRK1; assay type: biochemical; settings: 300-350 nM
Text: as §1

JAK3 = JAK3 (Homo sapiens (Human), UniProt P52333); test: SelectScreen Kinase Profiling: JAK3; assay type: biochemical; settings: 300-350 nM
Text: as §1

FLT3 = FLT3 (Homo sapiens (Human), UniProt P36888); test: SelectScreen Kinase Profiling: FLT3; assay type: biochemical; settings: 300-350 nM
Text: as §1

PRKACA (PKA) = PRKACA (PKA) (Homo sapiens (Human), UniProt P17612); test: SelectScreen Kinase Profiling: PRKACA; assay type: biochemical; settings: 300-350 nM
Text: as §1

AURKA (Aurora A) = AURKA (Aurora A) (Homo sapiens (Human), UniProt O14965); test: SelectScreen Kinase Profiling: AURKA; assay type: biochemical; settings: 300-350 nM
Text: as §1

EPHA2 = EPHA2 (Homo sapiens (Human), UniProt P29317); test: SelectScreen Kinase Profiling: EPHA2; assay type: biochemical; settings: 300-350 nM
Text: as §1

CSNK2A1 (CK2 alpha 1) = CSNK2A1 (CK2 alpha 1) (Homo sapiens (Human), UniProt P68400); test: SelectScreen Kinase Profiling: CSNK2A1; assay type: biochemical; settings: 300-350 nM
Text: as §1

BTK = BTK (Homo sapiens (Human), UniProt Q06187); test: SelectScreen Kinase Profiling: BTK; assay type: biochemical; settings: 300-350 nM
Text: as §1

GSK3B (GSK3 beta) = GSK3B (GSK3 beta) (Homo sapiens (Human), UniProt P49841); test: SelectScreen Kinase Profiling: GSK3B; assay type: biochemical; settings: 300-350 nM
Text: as §1

RPS6KB1 (p70S6K) = RPS6KB1 (p70S6K) (Homo sapiens (Human), UniProt P23443); test: SelectScreen Kinase Profiling: RPS6KB1; assay type: biochemical; settings: 300-350 nM
Text: as §1

MARK2 = MARK2 (Homo sapiens (Human), UniProt Q7KZI7); test: SelectScreen Kinase Profiling: MARK2; assay type: biochemical; settings: 300-350 nM
Text: as §1

ROCK1 = ROCK1 (Homo sapiens (Human), UniProt Q13464); test: SelectScreen Kinase Profiling: ROCK1; assay type: biochemical; settings: 300-350 nM
Text: as §1

MAPKAPK2 = MAPKAPK2 (Homo sapiens (Human), UniProt P49137); test: SelectScreen Kinase Profiling: MAPKAPK2; assay type: biochemical; settings: 300-350 nM
Text: as §1

FRAP1 (mTOR) = FRAP1 (mTOR) (Homo sapiens (Human), UniProt P42345); test: SelectScreen Kinase Profiling: FRAP1; assay type: biochemical; settings: 300-350 nM
Text: as §1

IGF1R = IGF1R (Homo sapiens (Human), UniProt P08069); test: SelectScreen Kinase Profiling: IGF1R; assay type: biochemical; settings: 300-350 nM
Text: as §1

MAP4K4 (HGK) = MAP4K4 (HGK) (Homo sapiens (Human), UniProt O95819); test: SelectScreen Kinase Profiling: MAP4K4; assay type: biochemical; settings: 300-350 nM
Text: as §1

PAK4 = PAK4 (Homo sapiens (Human), UniProt O96013); test: SelectScreen Kinase Profiling: PAK4; assay type: biochemical; settings: 300-350 nM
Text: as §1

KIT = KIT (Homo sapiens (Human), UniProt P10721); test: SelectScreen Kinase Profiling: KIT; assay type: biochemical; settings: 300-350 nM
Text: as §1

RET = RET (Homo sapiens (Human), UniProt P07949); test: SelectScreen Kinase Profiling: RET; assay type: biochemical; settings: 300-350 nM
Text: as §1

IRAK4 = IRAK4 (Homo sapiens (Human), UniProt Q9NWZ3); test: SelectScreen Kinase Profiling: IRAK4; assay type: biochemical; settings: 300-350 nM
Text: as §1

Chain of EPHA2 (P29317 24-976): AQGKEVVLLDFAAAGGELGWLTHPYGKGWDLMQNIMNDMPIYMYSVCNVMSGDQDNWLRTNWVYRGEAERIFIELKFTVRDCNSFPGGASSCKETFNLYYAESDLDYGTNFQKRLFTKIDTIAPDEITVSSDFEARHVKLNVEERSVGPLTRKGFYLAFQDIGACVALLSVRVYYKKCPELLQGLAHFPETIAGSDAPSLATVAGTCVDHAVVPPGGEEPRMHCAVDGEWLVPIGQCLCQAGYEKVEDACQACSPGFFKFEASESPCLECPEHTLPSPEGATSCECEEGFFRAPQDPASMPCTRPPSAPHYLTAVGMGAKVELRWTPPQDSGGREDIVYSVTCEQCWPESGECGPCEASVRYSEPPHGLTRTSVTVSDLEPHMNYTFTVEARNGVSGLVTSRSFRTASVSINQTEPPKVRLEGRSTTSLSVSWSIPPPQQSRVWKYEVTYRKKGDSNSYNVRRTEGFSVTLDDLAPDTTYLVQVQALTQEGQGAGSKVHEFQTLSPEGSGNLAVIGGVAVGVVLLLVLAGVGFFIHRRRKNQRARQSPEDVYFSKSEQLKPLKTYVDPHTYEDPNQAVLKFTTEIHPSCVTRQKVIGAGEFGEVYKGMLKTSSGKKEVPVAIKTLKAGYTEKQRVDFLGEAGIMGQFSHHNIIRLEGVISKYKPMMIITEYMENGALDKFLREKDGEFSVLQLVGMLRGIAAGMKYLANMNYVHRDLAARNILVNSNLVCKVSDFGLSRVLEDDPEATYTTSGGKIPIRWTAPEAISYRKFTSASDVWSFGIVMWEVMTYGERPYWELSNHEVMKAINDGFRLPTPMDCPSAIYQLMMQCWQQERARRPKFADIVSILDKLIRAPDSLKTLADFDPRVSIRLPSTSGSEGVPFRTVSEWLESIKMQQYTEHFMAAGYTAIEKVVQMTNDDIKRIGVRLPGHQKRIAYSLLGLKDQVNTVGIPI
Chain of AURKA (Aurora A) (O14965 whole entry): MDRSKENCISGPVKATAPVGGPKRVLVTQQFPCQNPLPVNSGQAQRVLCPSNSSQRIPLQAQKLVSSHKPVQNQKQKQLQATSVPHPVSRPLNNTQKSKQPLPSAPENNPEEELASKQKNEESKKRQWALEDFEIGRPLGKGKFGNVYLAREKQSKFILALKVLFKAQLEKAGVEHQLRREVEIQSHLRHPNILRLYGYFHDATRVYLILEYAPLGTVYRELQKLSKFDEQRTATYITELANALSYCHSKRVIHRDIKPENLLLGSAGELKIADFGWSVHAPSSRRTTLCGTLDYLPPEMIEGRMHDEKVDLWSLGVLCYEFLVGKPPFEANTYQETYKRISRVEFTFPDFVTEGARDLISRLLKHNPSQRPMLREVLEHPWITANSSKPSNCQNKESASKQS
Chain of MAPKAPK2 (P49137 whole entry): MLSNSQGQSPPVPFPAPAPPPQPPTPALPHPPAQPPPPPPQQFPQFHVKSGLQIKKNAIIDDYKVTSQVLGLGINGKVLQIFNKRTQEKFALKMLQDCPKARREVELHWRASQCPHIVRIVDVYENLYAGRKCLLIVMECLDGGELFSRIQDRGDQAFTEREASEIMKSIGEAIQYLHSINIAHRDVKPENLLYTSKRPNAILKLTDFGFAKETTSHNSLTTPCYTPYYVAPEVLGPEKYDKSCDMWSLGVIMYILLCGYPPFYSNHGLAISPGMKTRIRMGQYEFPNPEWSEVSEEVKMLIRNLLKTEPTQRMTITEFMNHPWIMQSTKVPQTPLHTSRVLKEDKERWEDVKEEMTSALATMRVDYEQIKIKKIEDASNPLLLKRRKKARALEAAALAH
Chain of LCK (P06239 whole entry): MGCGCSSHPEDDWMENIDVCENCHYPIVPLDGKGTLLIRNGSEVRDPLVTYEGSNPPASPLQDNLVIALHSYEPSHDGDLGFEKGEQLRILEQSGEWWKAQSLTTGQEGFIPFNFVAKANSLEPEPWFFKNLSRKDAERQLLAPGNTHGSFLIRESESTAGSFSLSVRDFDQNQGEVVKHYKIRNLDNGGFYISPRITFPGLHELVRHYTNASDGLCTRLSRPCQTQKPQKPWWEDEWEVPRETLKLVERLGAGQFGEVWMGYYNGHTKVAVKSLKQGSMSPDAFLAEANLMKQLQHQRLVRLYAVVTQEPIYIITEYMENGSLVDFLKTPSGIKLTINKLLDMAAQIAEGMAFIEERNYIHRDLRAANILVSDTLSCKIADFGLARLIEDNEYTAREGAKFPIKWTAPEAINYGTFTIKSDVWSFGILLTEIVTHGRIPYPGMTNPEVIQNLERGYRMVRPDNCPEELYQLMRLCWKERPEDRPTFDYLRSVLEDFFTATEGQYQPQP
Chain of PIM1 (P11309 whole entry): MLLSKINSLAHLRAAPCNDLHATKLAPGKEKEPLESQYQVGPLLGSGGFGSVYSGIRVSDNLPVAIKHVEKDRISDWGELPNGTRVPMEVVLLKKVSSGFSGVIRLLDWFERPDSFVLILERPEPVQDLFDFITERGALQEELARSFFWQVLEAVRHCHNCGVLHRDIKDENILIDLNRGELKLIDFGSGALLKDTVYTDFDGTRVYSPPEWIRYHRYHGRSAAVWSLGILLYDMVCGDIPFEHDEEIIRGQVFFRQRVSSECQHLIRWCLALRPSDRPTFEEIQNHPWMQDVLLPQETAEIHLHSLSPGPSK
Chain of MAPK14 (p38 alpha) (Q16539 whole entry): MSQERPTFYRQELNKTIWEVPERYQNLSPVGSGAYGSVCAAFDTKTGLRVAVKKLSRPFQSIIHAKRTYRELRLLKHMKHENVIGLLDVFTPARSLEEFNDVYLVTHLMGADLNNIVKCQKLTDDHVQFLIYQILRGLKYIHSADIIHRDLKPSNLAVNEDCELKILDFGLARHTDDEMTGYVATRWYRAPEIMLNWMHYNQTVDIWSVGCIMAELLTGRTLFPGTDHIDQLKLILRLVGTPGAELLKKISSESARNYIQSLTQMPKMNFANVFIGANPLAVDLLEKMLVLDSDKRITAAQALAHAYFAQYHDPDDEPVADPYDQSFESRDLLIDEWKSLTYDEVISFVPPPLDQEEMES
Chain of IRAK4 (Q9NWZ3 whole entry): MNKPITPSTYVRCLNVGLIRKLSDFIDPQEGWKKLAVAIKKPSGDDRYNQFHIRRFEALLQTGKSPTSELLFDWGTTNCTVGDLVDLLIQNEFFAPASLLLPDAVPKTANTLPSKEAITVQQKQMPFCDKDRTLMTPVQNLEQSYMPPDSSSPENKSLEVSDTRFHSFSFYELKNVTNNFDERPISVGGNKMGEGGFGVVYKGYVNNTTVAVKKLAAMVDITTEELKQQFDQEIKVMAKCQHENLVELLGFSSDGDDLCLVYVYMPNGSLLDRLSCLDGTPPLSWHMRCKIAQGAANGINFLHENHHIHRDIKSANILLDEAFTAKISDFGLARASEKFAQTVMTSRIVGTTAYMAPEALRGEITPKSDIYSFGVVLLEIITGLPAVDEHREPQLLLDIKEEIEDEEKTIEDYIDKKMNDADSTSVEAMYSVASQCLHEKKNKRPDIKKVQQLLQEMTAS
Chain of RPS6KB1 (p70S6K) (P23443 whole entry): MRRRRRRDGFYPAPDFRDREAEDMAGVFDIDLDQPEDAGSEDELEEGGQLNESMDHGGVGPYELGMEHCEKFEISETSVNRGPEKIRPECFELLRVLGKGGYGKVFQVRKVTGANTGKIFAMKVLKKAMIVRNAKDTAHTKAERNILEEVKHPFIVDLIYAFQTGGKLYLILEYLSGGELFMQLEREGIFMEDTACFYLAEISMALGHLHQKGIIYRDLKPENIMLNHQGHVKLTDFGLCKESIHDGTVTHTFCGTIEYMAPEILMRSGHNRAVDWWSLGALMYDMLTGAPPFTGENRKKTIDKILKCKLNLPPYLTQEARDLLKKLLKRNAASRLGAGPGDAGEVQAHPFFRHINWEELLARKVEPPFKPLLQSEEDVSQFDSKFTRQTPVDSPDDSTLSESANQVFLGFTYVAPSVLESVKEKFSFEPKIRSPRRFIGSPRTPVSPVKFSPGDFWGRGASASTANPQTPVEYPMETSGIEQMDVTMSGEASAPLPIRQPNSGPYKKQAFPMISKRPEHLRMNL
Chain of RET (P07949 29-1114): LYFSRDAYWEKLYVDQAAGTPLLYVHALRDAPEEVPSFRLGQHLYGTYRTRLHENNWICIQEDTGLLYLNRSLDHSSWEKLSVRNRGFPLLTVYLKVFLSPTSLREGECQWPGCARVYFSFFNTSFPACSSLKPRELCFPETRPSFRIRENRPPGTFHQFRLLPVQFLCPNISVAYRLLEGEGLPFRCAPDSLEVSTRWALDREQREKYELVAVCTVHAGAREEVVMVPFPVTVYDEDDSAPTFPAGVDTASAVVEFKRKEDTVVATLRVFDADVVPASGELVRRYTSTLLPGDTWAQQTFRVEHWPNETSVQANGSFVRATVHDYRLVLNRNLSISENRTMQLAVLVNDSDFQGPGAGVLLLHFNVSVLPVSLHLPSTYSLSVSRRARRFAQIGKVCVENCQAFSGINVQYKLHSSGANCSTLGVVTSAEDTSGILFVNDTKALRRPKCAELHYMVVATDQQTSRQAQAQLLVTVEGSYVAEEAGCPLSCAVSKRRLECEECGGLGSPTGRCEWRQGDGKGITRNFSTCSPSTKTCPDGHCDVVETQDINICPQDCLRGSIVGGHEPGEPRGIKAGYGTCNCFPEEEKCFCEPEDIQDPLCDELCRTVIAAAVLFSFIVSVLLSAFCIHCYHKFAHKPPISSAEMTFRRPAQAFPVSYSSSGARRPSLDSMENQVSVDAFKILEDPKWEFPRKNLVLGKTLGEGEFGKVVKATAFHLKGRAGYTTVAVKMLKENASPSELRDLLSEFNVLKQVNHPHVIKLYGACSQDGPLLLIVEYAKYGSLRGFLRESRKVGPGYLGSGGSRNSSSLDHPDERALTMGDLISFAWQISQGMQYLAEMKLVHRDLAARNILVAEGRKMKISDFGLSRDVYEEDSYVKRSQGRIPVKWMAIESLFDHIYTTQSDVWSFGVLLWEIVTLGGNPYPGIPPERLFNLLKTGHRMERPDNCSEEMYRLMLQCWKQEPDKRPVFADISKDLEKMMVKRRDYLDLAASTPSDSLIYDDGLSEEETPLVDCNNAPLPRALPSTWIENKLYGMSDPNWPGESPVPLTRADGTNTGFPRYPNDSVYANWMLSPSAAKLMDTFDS

SMILES: CCN(CC)CCOc1ccc(Nc2ncc3cc(-c4c(Cl)cccc4Cl)c(=O)n(C)c3n2)cc1 [Compound 1 BMCL, 2005, p1931, reference compound]
- Inhibition PHKG2 (PHKG2): − (Inhibition <75% @ 300-350 nM)
- Inhibition INSR (INSR): − (Inhibition <75% @ 300-350 nM)
- Inhibition PIM1 (PIM1): − (Inhibition <75% @ 300-350 nM)
- Inhibition PRKCB1 (PKC beta I) (PRKCB1 (PKC beta I)): − (Inhibition <75% @ 300-350 nM)
- Inhibition ABL1 (ABL1): + (Inhibition >75% at 300-350 nM)
- Inhibition LCK (LCK): + (Inhibition >75% at 300-350 nM)
- Inhibition KDR (VEGFR2) (KDR (VEGFR2)): + (Inhibition >75% at 300-350 nM)
- Inhibition ERBB2 (HER2) (ERBB2 (HER2)): − (Inhibition <75% @ 300-350 nM)
- Inhibition MAPK14 (p38 alpha) (MAPK14 (p38 alpha)): + (Inhibition >75% at 300-350 nM)
- Inhibition MAPK8 (JNK1) (MAPK8 (JNK1)): − (Inhibition <75% @ 300-350 nM)
- Inhibition DYRK3 (DYRK3): − (Inhibition <75% @ 300-350 nM)
- IC50 (Src [1]): 6 nM
- Inhibition MAPK1 (ERK2) (MAPK1 (ERK2)): − (Inhibition <75% @ 300-350 nM)
- Inhibition FGFR1 (FGFR1): + (Inhibition >75% at 300-350 nM)
- Inhibition ACVR1B (ALK4) (ACVR1B (ALK4)): + (Inhibition >75% at 300-350 nM)
- Inhibition AKT1 (PKB alpha) (AKT1 (PKB alpha)): − (Inhibition <75% @ 300-350 nM)
- Inhibition MAP2K1 (MEK1) (MAP2K1 (MEK1)): − (Inhibition <75% @ 300-350 nM)
- Inhibition SYK (SYK): − (Inhibition <75% @ 300-350 nM)
- Inhibition NEK1 (NEK1): − (Inhibition <75% @ 300-350 nM)
- Inhibition PLK1 (PLK1): − (Inhibition <75% @ 300-350 nM)
- Inhibition SRC (Src [2]): + (Inhibition >75% at 300-350 nM)
- Inhibition TEK (Tie2) (TEK (Tie2)): − (Inhibition <75% @ 300-350 nM)
- Inhibition CHEK1 (CHK1) (CHEK1 (CHK1)): − (Inhibition <75% @ 300-350 nM)
- Inhibition IKBKB (IKK beta) (IKBKB (IKK beta)): − (Inhibition <75% @ 300-350 nM)
- Inhibition CSNK1G2 (CK1 gamma 2) (CSNK1G2 (CK1 gamma 2)): − (Inhibition <75% @ 300-350 nM)
- Inhibition MET (cMet) (MET (cMet)): − (Inhibition <75% @ 300-350 nM)
- Inhibition NTRK1 (TRKA) (NTRK1 (TRKA)): − (Inhibition <75% @ 300-350 nM)
- Inhibition JAK3 (JAK3): + (Inhibition >75% at 300-350 nM)
- Inhibition FLT3 (FLT3): + (Inhibition >75% at 300-350 nM)
- Inhibition PRKACA (PKA) (PRKACA (PKA)): − (Inhibition <75% @ 300-350 nM)
- Inhibition AURKA (Aurora A) (AURKA (Aurora A)): − (Inhibition <75% @ 300-350 nM)
- Inhibition EPHA2 (EPHA2): + (Inhibition >75% at 300-350 nM)
- Inhibition CSNK2A1 (CK2 alpha 1) (CSNK2A1 (CK2 alpha 1)): − (Inhibition <75% @ 300-350 nM)
- Inhibition BTK (BTK): + (Inhibition >75% at 300-350 nM)
- Inhibition GSK3B (GSK3 beta) (GSK3B (GSK3 beta)): − (Inhibition <75% @ 300-350 nM)
- Inhibition RPS6KB1 (p70S6K) (RPS6KB1 (p70S6K)): − (Inhibition <75% @ 300-350 nM)
- Inhibition MARK2 (MARK2): + (Inhibition >75% at 300-350 nM)
- Inhibition ROCK1 (ROCK1): − (Inhibition <75% @ 300-350 nM)
- Inhibition MAPKAPK2 (MAPKAPK2): − (Inhibition <75% @ 300-350 nM)
- Inhibition FRAP1 (mTOR) (FRAP1 (mTOR)): − (Inhibition <75% @ 300-350 nM)
- Inhibition IGF1R (IGF1R): − (Inhibition <75% @ 300-350 nM)
- Inhibition MAP4K4 (HGK) (MAP4K4 (HGK)): + (Inhibition >75% at 300-350 nM)
- Inhibition PAK4 (PAK4): − (Inhibition <75% @ 300-350 nM)
- Inhibition KIT (KIT): + (Inhibition >75% at 300-350 nM)
- Inhibition RET (RET): + (Inhibition >75% at 300-350 nM)
- Inhibition IRAK4 (IRAK4): − (Inhibition <75% @ 300-350 nM)
